Test results: the NIST ThermoML archive (doi:10.1021/je100313a)
“And” between values parts separate entries of the source, which are not always exact repeats. Equal values may be shown once.

Key:
[1] = xn = mol fraction of the nth substance listed; settings: 101 kPa, Liquid
[2] = 101 kPa, Liquid

C1C[C@@H]2[C@H]3CC[C@H](C3)[C@@H]2C1 [exo-tetrahydrodicyclopentadiene] + CCCCCCCCCCCCCC
[1]
Settings | mass density, 293.15 K [kg/m3] | mass density, 298.15 K [kg/m3] | mass density, 303.15 K [kg/m3] | mass density, 313.15 K [kg/m3] | viscosity, 293.15 K [mPa·s] | viscosity, 298.15 K [mPa·s] | viscosity, 303.15 K [mPa·s] | viscosity, 313.15 K [mPa·s]
x2 = 0 | 935.3 | 931.4 | 927.5 | 919.6 | 3.077 | 2.784 | 2.525 | 2.112
x2 = 0.0703 | 914.6 | 910.8 | 906.9 | 899.2 | 2.961 | 2.679 | 2.429 | 2.034
x2 = 0.1451 | 894.8 | 891 | 887.1 | 879.5 | 2.857 | 2.582 | 2.343 | 1.958
x2 = 0.2274 | 875.5 | 871.7 | 868 | 860.4 | 2.766 | 2.496 | 2.259 | 1.888
x2 = 0.2692 | 866.5 | 862.7 | 859 | 851.4 | 2.724 | 2.456 | 2.223 | 1.857
x2 = 0.4088 | 839.5 | 835.8 | 832.1 | 824.7 | 2.609 | 2.35 | 2.125 | 1.777
x2 = 0.5067 | 823.2 | 819.5 | 815.9 | 808.5 | 2.544 | 2.291 | 2.072 | 1.734
x2 = 0.616 | 807 | 803.4 | 799.8 | 792.5 | 2.487 | 2.243 | 2.028 | 1.698
x2 = 0.7324 | 791.7 | 788.2 | 784.6 | 777.4 | 2.438 | 2.197 | 1.983 | 1.663
x2 = 0.8606 | 776.9 | 773.4 | 769.8 | 762.7 | 2.39 | 2.151 | 1.94 | 1.629

CCCCCCCCCCCCCC [tetradecane] + C1C[C@@H]2[C@H]3CC[C@H](C3)[C@@H]2C1
[1], x1 = 1
Settings | mass density [kg/m3] | viscosity [mPa·s]
293.15 K | 762.9 | 2.346
298.15 K | 759.2 | 2.107
303.15 K | 755.7 | 1.897
313.15 K | 748.6 | 1.594

CCCCCCCCCCC [undecane]
[2]
Settings | mass density [kg/m3] | viscosity [mPa·s]
293.15 K | 740.4 | 1.199
298.15 K | 736.7 | 1.099
303.15 K | 733 | 1.022
313.15 K | 725.6 | 0.878

CCCCCCCCCCC [undecane] + C1C[C@@H]2[C@H]3CC[C@H](C3)[C@@H]2C1
[1], x1 = 1
Settings | mass density [kg/m3] | viscosity [mPa·s]
293.15 K | 740.4 | 1.199
298.15 K | 736.7 | 1.099
303.15 K | 733 | 1.022
313.15 K | 725.6 | 0.878

CCCCCCCCCCCCCC [tetradecane]
[2]
Settings | mass density [kg/m3] | viscosity [mPa·s]
293.15 K | 762.9 | 2.346
298.15 K | 759.2 | 2.107
303.15 K | 755.7 | 1.897
313.15 K | 748.6 | 1.594

C1C[C@@H]2[C@H]3CC[C@H](C3)[C@@H]2C1 [exo-tetrahydrodicyclopentadiene]
[2]
Settings | mass density [kg/m3] | viscosity
293.15 K | 935.3 | 3.076 mPa·s and 3.077 mPa·s
298.15 K | 931.4 | 2.784 mPa·s
303.15 K | 927.5 | 2.525 mPa·s
313.15 K | 919.6 | 2.112 mPa·s
